Experimental data reported in patent US20180057505A1, “BICYCLIC HETEROARYL COMPOUNDS USEFUL AS INHIBITORS OF THE PAR-2 SIGNALING PATHWAY” (VERTEX PHARMACEUTICALS INCORPORATED, priority 2015, published 2018).
pIC50: −log10 of the molar value.

Key:
Assay type in all cases: cell-based
[1] = test system: UTP-stimulated Ca2+ response in HT-29 cells; assay: Ca FLIPR TETRA assay, ANTAGONIST mode, activator 0.6 μM UTP; conditions: HT-29 cells, activator 0.6 μM UTP
Procedure, shortened: (§1)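 HT-29 cells plated overnight at 37 °C in 1% FBS/McCoy's, loaded with calcium 5 dye (45 min 37 °C, 15 min r.t.), then preincubated with compounds 30 min at r.t. before a fixed activator challenge. Intracellular Ca2+ read by FLIPR Tetra; a first read checks compound-alone activation.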

PAR2 (HT-29 cells) [2] = biological target: T1, PAR2 (HT-29 cells) (Homo sapiens, UniProt P55085); assay: Ca FLIPR TETRA assay, ANTAGONIST mode, activator 3.1 U/mL trypsin; conditions: HT-29 cells, activator 3.1 U/mL trypsin; maximal antagonist concentration per Method (A: 0.1, 1 or 2 μM; B: 50 μM)
T1 construct: host or cells: HT-29
T1 sequence (P55085 26-397): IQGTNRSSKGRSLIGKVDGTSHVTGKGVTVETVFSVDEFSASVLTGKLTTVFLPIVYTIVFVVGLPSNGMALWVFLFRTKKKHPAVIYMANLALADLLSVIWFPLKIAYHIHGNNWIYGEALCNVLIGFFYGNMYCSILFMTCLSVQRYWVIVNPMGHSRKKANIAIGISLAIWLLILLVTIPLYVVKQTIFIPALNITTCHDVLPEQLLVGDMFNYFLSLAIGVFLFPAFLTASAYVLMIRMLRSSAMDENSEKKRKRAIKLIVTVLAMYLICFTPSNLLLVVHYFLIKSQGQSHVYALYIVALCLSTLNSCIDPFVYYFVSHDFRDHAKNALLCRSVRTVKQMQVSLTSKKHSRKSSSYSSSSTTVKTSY
Procedure, shortened: as §1

PAR2 (HT-29 cells) [3] = biological target: T1, PAR2 (HT-29 cells); assay: Ca FLIPR TETRA assay, ANTAGONIST mode, activator 8 μM SLIGKV; conditions: HT-29 cells, activator 8 μM SLIGKV; maximal antagonist concentration per Method (A: 0.1, 1 or 2 μM; B: 50 μM)
Procedure, shortened: as §1

[4] = test system: Thrombin-stimulated Ca2+ response in HT-29 cells; assay: Ca FLIPR TETRA assay, ANTAGONIST mode, activator 1 U/mL Thrombin; conditions: HT-29 cells, activator 1 U/mL Thrombin
Procedure, shortened: as §1

Structure (SMILES)	pIC50 ([1]; Homo sapiens)	pIC50 (PAR2 (HT-29 cells) [2])	pIC50 (PAR2 (HT-29 cells) [3])	pIC50 ([4]; Homo sapiens)	pIC50 [1]	pIC50 [4]
CC(C)(C)c1cc(C2CCCC2)nc2cc(C(=O)N3CCNC(=O)C3(C)C)oc12 [Example I-215]	< 6.00	6.52	7.02	< 6.00	–	–
CC(C)(C)c1cc(C2CCC(F)(F)CC2)nc2cc(C(=O)N3CCNC(=O)C3(C)C)oc12 [Example I-216]	< 6.00	6.62	7.17	< 6.00	–	–
CC1(C)CCC(c2cc(C(C)(C)C)c3oc(C(=O)N4CCNC(=O)C4(C)C)cc3n2)CC1 [Example I-217, 4-[7-tert-butyl-5-(4,4-dimethylcyclohexyl)furo[3,2-b]pyridine-2-carbonyl]-3,3-dimethyl-piperazin-2-one]	< 5.70	7.66	7.89	< 5.70	–	–
CC(C)(C)c1cc(C2CCC(Cl)(Cl)CC2)nc2cc(C(=O)N3CCNC(=O)C3(C)C)oc12 [Example I-218]	< 5.70	7.36	7.44	< 5.70	–	–
CNS(=O)(=O)CC(=O)N1CCN(C(=O)c2cc3nc(C4CCC(F)(F)CC4)cc(C(C)(C)C)c3o2)C(C)(C)C1=O [Example I-219]	–	7.30	7.41	–	< 5.70	< 5.70
CC(C)(C)c1cc(C2CCC(F)(F)CC2)nc2cc(C(=O)N3CCN(C(=O)[C@H]4CC[C@@](C)(C(=O)O)CC4)C(=O)C3(C)C)oc12 [Example I-220]	–	7.89	8.17	–	< 5.70	< 5.70
Cc1nc(C(=O)N2CCN(C(=O)c3cc4nc(C5CCC(F)(F)CC5)cc(C(C)(C)C)c4o3)C(C)(C)C2=O)n[nH]1 [Example I-221]	–	7.24	7.49	–	< 5.70	< 5.70
CC(C)(C)c1cc(C2CCC(F)(F)CC2)nc2cc(C(=O)N3CCN(C(=O)CNS(C)(=O)=O)C(=O)C3(C)C)oc12 [Example I-222]	–	6.14	6.56	–	< 5.70	< 5.70
Cc1cc(C(=O)N2CCN(C(=O)c3cc4nc(C5CCC(F)(F)CC5)cc(C(C)(C)C)c4o3)C(C)(C)C2=O)[nH]n1 [Example I-223]	–	7.41	7.86	–	< 5.70	< 5.70
CC(C)(C)c1cc(C2CCC(F)(F)CC2)nc2cc(C(=O)N3CCN(C(=O)C4CC(O)(C(F)(F)F)C4)C(=O)C3(C)C)oc12 (stereo not shown) [Example I-224]	–	8.48	8.64	–	< 5.70	< 5.70
CC(C)(C)c1cc(C2CCC(F)(F)CC2)nc2cc(C(=O)N3CCN(C(=O)[C@H]4CC[C@@H](O)CC4)CC3(C)C)oc12 [Example I-225]	< 5.70	7.62	7.89	< 5.70	–	–
CNS(=O)(=O)CCC(=O)N1CCN(C(=O)c2cc3nc(C4CCC(F)(F)CC4)cc(C(C)(C)C)c3o2)C(C)(C)C1 [Example I-226]	< 5.70	6.64	7.12	< 5.70	–	–
Cc1n[nH]c(C(=O)N2CCN(C(=O)c3cc4nc(C5CCC(C)(C)CC5)cc(C(C)(C)C)c4o3)C(C)(C)C2)n1 [Example I-227]	< 5.70	8.92	9.10	< 5.70	–	–
CC1(C)CCC(c2cc(C(C)(C)C)c3oc(C(=O)N4CCN(C(=O)[C@H]5C[C@@](C)(O)C5)CC4(C)C)cc3n2)CC1 [Example I-228]	< 5.70	8.85	9.05	< 5.70	–	–
CC(C)(C)c1cc(C2CCC(F)(F)CC2)nc2cc(C(=O)N3CCN(C(=O)[C@H]4CC[C@@H](C(=O)O)CC4)CC3(C)C)oc12 [Example I-229]	< 5.70	7.55	7.62	< 5.70	–	–
CC(C)(C)c1cc(C2CCC(F)(F)CC2)nc2cc(C(=O)N3CCN(C(=O)c4cnccn4)CC3(C)C)oc12 [Example I-230]	< 5.70	6.82	7.09	< 5.70	–	–
CC(C)(C)c1cc(C2CCC(F)(F)CC2)nc2cc(C(=O)N3CCN(C(=O)c4ncccn4)CC3(C)C)oc12 [Example I-231]	< 5.70	6.80	7.08	< 5.70	–	–
CC(C)(C)c1cc(C2CCC(F)(F)CC2)nc2cc(C(=O)N3CCN(C(=O)CCS(C)(=O)=O)CC3(C)C)oc12 [Example I-232]	< 5.70	6.70	6.67	< 5.70	–	–
CCC(CC)c1cc(-c2ccc(F)cc2)nc2cc(C(=O)N3CCNC(=O)C3(C)C)oc12 [Example I-233]	< 5.70	8.09	8.21	< 5.70	–	–
CC(C)(C)c1cc(C2CCC(F)(F)CC2)nc2cc(C(=O)N3CCN(C(=O)[C@H]4C[C@@](C)(O)C4)CC3(C)C)oc12 [Example I-234]	< 5.70	7.42	7.66	< 5.70	–	–
CC(C)(C)c1cc(-c2ccc(F)cc2)nc2cc(C(=O)N3CCN(c4ccn[nH]4)C(=O)C3(C)C)oc12 [Example I-235]	< 5.70	8.03	8.25	< 5.70	–	–
CN1CCN(C(=O)c2cc3nc(-c4ccc(Cl)cc4)cc(C(C)(C)C)c3o2)C(C)(C)C1=O [Example I-236]	< 5.70	8.30	8.46	< 5.70	–	–
[2H]C([2H])([2H])N1CCN(C(=O)c2cc3nc(-c4ccc(Cl)c(F)c4)cc(C(C)(C)C)c3o2)C(C)(C)C1=O [Example I-237]	< 5.70	8.62	8.74	< 5.70	–	–

The next lines start with the values.

pIC50 ([1]; Homo sapiens)	pIC50 (PAR2 (HT-29 cells) [2])	pIC50 (PAR2 (HT-29 cells) [3])	pIC50 ([4]; Homo sapiens)	pIC50 [1]	pIC50 [4]	Structure (SMILES)
< 5.70	7.55	7.74	< 5.70	–	–	[2H]C([2H])([2H])N1CCN(C(=O)c2cc3nc(-c4cccc(Cl)c4)cc(C(C)(C)C)c3o2)C(C)(C)C1=O [Example I-238]
< 5.70	8.27	8.21	< 5.70	–	–	[2H]C([2H])([2H])N1CCN(C(=O)c2cc3nc(-c4ccc(F)c(Cl)c4)cc(C(C)(C)C)c3o2)C(C)(C)C1=O [Example I-239]
< 5.70	8.74	8.57	< 5.70	–	–	[2H]C([2H])([2H])N1CCN(C(=O)c2cc3nc(-c4ccc(Cl)cc4)cc(C(C)(C)C)c3o2)C(C)(C)C1=O [Example I-240]
< 5.70	8.80	8.77	< 5.70	–	–	CN1CCN(C(=O)c2cc3nc(-c4ccc(Cl)c(F)c4)cc(C(C)(C)C)c3o2)C(C)(C)C1=O [Example I-241]
< 5.70	7.62	7.72	< 5.70	–	–	CN1CCN(C(=O)c2cc3nc(-c4cccc(Cl)c4)cc(C(C)(C)C)c3o2)C(C)(C)C1=O [Example I-242]
< 5.70	8.13	8.40	< 5.70	–	–	CN1CCN(C(=O)c2cc3nc(-c4ccc(F)c(Cl)c4)cc(C(C)(C)C)c3o2)C(C)(C)C1=O [Example I-243]
< 5.70	7.57	7.72	< 5.70	–	–	CC(C)(C)c1cc(-c2cccc(Cl)c2)nc2cc(C(=O)N3CCNC(=O)C3(C)C)oc12 [Example I-244]
< 5.70	8.32	8.60	< 5.70	–	–	CC[C@@H](C)c1cc(-c2ccc(F)cc2)nc2cc(C(=O)N3CCNC(=O)C3(C)C)oc12 [Example I-245]
< 5.70	7.80	7.96	< 5.70	–	–	CC[C@H](C)c1cc(-c2ccc(F)cc2)nc2cc(C(=O)N3CCNC(=O)C3(C)C)oc12 [Example I-246]
< 5.70	7.70	7.92	< 5.70	–	–	Cc1cn[nH]c1N1CCN(C(=O)c2cc3nc(-c4ccc(F)cc4)cc(C(C)(C)C)c3o2)C(C)(C)C1=O [Example I-247]
< 5.70	7.39	7.96	< 5.70	–	–	Cc1cc(N2CCN(C(=O)c3cc4nc(-c5ccc(F)cc5)cc(C(C)(C)C)c4o3)C(C)(C)C2=O)[nH]n1 [Example I-248]
< 5.70	7.96	8.40	< 5.70	–	–	CCCC(CC)c1cc(-c2ccc(F)cc2)nc2cc(C(=O)N3CCNC(=O)C3(C)C)oc12 (stereo not shown) [Example I-249]
< 5.70	7.29	7.82	< 5.70	–	–	Cc1n[nH]cc1N1CCN(C(=O)c2cc3nc(-c4ccc(F)cc4)cc(C(C)(C)C)c3o2)C(C)(C)C1=O [Example I-250]
–	< 5.70	< 5.70	–	< 5.70	< 5.70	CC1(C)CCC(c2cc(-c3ccc(F)cc3)nc3cc(C(=O)N4CCNC(=O)C4(C)C)oc23)CC1 [Example I-251]
